Laboratory results published in PMC9721426, “Novel piperine-carboximidamide hybrids: design, synthesis, and antiproliferative activity via a multi-targeted inhibitory pathway” (Journal of Enzyme Inhibition and Medicinal Chemistry, 2022).

Key:
[1] = MTT cell viability assay on normal mammary epithelial cells; format: cell-based; conditions: human, MCF-10A normal cells, 4 days incubation
Procedure: A human mammary gland epithelial (MCF-10A) normal cell line was used to perform the viability test. The viability of compounds VIa-k was determined using the MTT assay after 4 days of incubation with MCF-10A cells[26]^,[27].
The MTT assay was used to assess how the synthetic compounds impacted the viability of mammary epithelial cells (MCF-10A)[26]^,[27]. Appendix A. […]
4.2. Biological evaluation
4.2.1. Cytotoxic activity using MTT Assay and evaluation of IC50
MTT assay was carried out to study the effect of compounds on mammary epithelial cells (MCF-10A)26,27. The medium in which cells were propagated contained Dulbecco's modified Eagle's medium (DMEM)/ Ham's F-12 medium (1:1) supplemented with epidermal growth factor (20 ng/mL), hydrocortisone (500 ng/mL), insulin (10 μg/mL), 2 mM glutamine and 10% foetal calf serum. After every 2-3 days, the cells were passaged using trypsin ethylenediamine tetra acetic acid (EDTA). The cells were seeded at a density of 10^4 cells mL-1 in flat-bottomed culture plates containing 96 wells each. […]
A single compound was designated with four wells followed by incubation of plates for 96h at 37°C. After incubation, medium was removed completely from the plates followed by addition of MTT (0.4 mg/mL in medium) to each well and subsequent incubation of plates for 3h. MTT (along with the medium) was removed and DMSO (150μL) was added to each well of the culture plates, followed by vortexing and subsequent measurement of absorbance (at 540 nm) using microplate reader. […]

EGFR = biological target: T1, EGFR (Homo sapiens, UniProt P00533); assay: EGFR-TK inhibitory assay; format: biochemical; conditions: EGFR-TK assay; read-out: EGFR inhibition IC50 ± SEM
T1 construct: cytoplasmic domain (EGFR -CD, amino acids 645–1186); His6 (N); made in house; host or cells: Sf-9 insect cells (baculovirus, pBlueBacHis2B / pFASTBacHTc)
T1 sequence (P00533 669-1210): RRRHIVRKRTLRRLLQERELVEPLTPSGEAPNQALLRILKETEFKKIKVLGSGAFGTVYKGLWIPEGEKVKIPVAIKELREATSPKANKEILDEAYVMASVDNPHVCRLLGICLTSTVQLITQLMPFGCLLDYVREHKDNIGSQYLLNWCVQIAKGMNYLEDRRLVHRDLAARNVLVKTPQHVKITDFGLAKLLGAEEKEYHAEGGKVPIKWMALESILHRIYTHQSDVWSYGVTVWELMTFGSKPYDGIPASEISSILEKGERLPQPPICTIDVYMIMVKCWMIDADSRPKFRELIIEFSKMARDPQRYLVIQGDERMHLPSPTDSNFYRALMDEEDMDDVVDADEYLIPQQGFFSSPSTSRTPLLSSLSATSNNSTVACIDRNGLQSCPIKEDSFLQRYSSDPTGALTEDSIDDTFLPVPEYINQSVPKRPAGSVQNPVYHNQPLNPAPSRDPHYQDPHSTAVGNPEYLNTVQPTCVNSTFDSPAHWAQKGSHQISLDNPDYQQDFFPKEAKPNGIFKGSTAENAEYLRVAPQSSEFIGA
Procedure: 4.2.1.3. EGFR inhibitory assay
EGFR-TK assay was performed to evaluate the inhibitory potency of the tested compounds against EGFR30. Baculoviral expression vectors including pBlueBacHis2B […]
sequence comprised a sequence that encoded (His) 6. Sf-9 cells were infected for 72h for protein expression. The pellets of Sf-9 cells were solubilized in a buffer containing sodium vanadate (100 µM), aprotinin (10 µg/mL), triton (1%), HEPES buffer (50mM), ammonium molybdate (10 µM), benzamidine HCl (16 µg/mL), NaCl (10 mM), leupeptin (10 µg/mL) and pepstatin (10 µg/mL) at 0°C for 20 min at pH 7.4, followed by centrifugation for 20 min. To eliminate the non-specifically bound material, a Ni-NTA super flow packed column was used to pass through and wash the crude extract supernatant first with 10 mM and then with 100 mM imidazole. […]
NaCl (50 mM), HEPES (20 mM), glycerol (10%) and 1 µg/mL each of aprotinin, leupeptin and pepstatin for 120 min. The purification was performed either at 4 °C or on ice. To record autophosphorylation level, EGFR kinase assay was carried out on the basis of DELFIA/Time-Resolved Fluorometry. The compounds were first dissolved in DMSO […]
pH 7.4. Each compound (10 µL) was incubated with recombinant enzyme (10 µL, 5 ng for EGFR, 1:80 dilution in 100 mM HEPES) for 10 min at 25 °C, subsequent to the addition of 5X buffer (10 µL, containing 2 mM MnCl2, 100 µM Na3VO4, 20 mM HEPES and 1 mM DTT) and ATP-MgCl2 (20 µL, containing 0.1 mM ATP and 50 mM MgCl 2) and incubation for 1h. The negative and positive controls were included in each plate by the incuba tion of enzyme either with or without ATP -MgCl2. The liquid was removed after incubation and the plates were washed thrice using wash buffer. Europium -tagged antiphosphotyrosine antibody (75 µL, 400 ng) was added to each well followed by incubation of 1h a nd then washing of the plates using buffer. The enhancement solution was added to each well and the signal was recorded at excitation and emission […]
The autophosphorylation percentage inhibition by compounds was calculated using the following equation: […]
Using the curves of percentage inhibition of eight concentrations of each compound, IC 50

[2] = system: LOX-IMVI melanoma cell line; assay: LOX-IMVI melanoma cell line MTT cytotoxicity assay; format: cell-based; conditions: Homo sapiens, 5-dose concentrations, read-out: LOX-IMVI melanoma IC50 ± SEM
Procedure: The MTT cytotoxicity assay was used to assess the anticancer activity of VIc, VIf, and VIk on the LOX-IMVI melanoma cell line, which comprises BRAF^V600E kinase overexpression. The compounds were evaluated at 5-dose concentrations to ascertain their IC50 values, with staurosporine acting as a control.
The MTT cytotoxicity assay was used to assess the anticancer activity of VIc, VIf, and VIk on the LOX-IMVI melanoma cell line, which comprises BRAF^V600E kinase overexpression. Refer to Appendix A.

BRAF^V600E = biological target: T2, BRAF^V600E (Mus musculus, UniProt P28028, V585E); assay: BRAF V600E kinase assay; format: biochemical; conditions: read-out: BRAF^V600E inhibition IC50 ± SEM
T2 construct: Mouse full-length GST-tagged BRAFV600E; GST; purchased Invitrogen PV3849
T2 sequence (P28028 whole entry V585E): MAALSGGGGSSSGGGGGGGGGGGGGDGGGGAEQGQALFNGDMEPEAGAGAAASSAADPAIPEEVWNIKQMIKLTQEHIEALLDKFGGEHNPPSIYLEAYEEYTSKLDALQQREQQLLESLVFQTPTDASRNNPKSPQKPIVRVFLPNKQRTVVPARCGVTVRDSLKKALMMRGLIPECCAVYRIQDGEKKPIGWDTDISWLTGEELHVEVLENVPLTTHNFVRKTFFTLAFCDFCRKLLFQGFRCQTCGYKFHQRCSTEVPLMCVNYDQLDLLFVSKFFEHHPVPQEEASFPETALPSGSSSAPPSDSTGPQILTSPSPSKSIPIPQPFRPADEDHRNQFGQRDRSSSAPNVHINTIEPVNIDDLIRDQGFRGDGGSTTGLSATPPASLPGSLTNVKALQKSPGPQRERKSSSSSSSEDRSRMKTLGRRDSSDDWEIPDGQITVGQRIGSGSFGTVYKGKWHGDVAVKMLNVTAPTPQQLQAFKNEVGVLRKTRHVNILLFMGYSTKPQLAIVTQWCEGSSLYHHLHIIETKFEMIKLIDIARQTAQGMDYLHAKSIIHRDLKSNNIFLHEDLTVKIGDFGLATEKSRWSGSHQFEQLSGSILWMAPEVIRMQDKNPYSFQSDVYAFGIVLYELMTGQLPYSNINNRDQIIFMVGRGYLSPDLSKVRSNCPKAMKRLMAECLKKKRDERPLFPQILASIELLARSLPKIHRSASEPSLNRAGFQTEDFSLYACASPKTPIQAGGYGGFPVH
Procedure: An in vitro study was conducted to evaluate the anti-BRAF^V600E of VIc, VIf, VIg, VIi, and VIk[31]. […] An in vitro study[31] was conducted to evaluate the anti-BRAF^V600E of VIc, VIf, VIg, VIi, and Vik. See Appendix A.
4.2.1.4. BRAF kinase assay
V600E mutant BRAF kinase assay was performed to investigate the activity of the most […]
Mouse full-length GST-tagged BRAFV600E (7.5 ng, Invitrogen, PV3849) was pre-incubated with drug (1 µL) and assay dilution buffer (4 µL) for 60 min at 25 °C. In assay dilution buffer, a solution (5 µL) containing MgCl 2 (30 mM), ATP (200 µM), recombinant human full length (200 ng) […] N-terminal His-tagged MEK1 (Invitrogen) was added to start the assay, subsequent to incubation for 25 min at 25 °C. The assay was stopped using 5X protein denaturing buffer (LDS) solution (5 µL).
To further denature the protein, heat (70° C) was applied for 5 min.
NuPage gel plates (Invitrogen) were used to carry out electrophoresis (at 200 V). 10 µL of each reaction was loaded into the precast plates and electrophoresis was allowed to proceed. After completion of electrophoresis, the front part of the precast gel plate (holding hot ATP) was cut and afterw ards cast-off. The dried gel was developed using a […]
that containing no inhibitor served as positive control. […]

[3] = MCF-10A mammary epithelial cells

| Compound | viability at 4 days, 50 µM [1, 3] | IC50 (EGFR) | IC50 [2] | IC50 (BRAF^V600E) | viability at 4 days, 50 µM ([1]; MCF-10A normal mammary gland epithelial cells) |
| --- | --- | --- | --- | --- | --- |
| NC(=NOC(=O)/C=C/C=C/c1ccc2c(c1)OCO2)c1ccc(Br)cc1 [VIc, N'-{[(2E,4E)-5-(2H-1,3-Benzodioxol-5-yl)penta-2,4-dienoyl]oxy}-4-bromobenzene-1-carboximidamide] | 86% | 112 ± 8 nM | 1400 ± 20 nM | 57 ± 6 nM |  |
| NC(=NOC(=O)/C=C/C=C/c1ccc2c(c1)OCO2)c1ccccc1Cl [VIf, N'-{[(2E,4E)-5-(2H-1,3-benzodioxol-5-yl)penta-2,4-dienoyl]oxy}-2-chlorobenzene-1-carboximidamide] | 90% | 105 ± 7 nM | 1100 ± 10 nM | 49 ± 5 nM |  |
| N/C(=N/OC(=O)/C=C/C=C/c1ccc2c(c1)OCO2)c1ccc2c(c1)OCO2 [VIk] |  | 127 ± 10 nM | 1050 ± 10 nM | 40 ± 4 nM | 89% |
